Experiment in all cases: relative viability (nuclei count vs DMSO), 5 days (fraction); higher = more cells survive
Compound in test [1]: CCOC1=CC=CC=C1N=NC2=C(NN(C2=O)C3=NC(=CS3)C4=CC=CC=C4)C [BAM7] + CCNC(=O)c1noc(-c2cc(C(C)C)c(O)cc2O)c1-c1ccc(CN2CCOCC2)cc1 [Luminespib] (partner 0.01 µM)
Summed up:
(§1)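 Relative viability divides the nuclei count in treated wells by that in vehicle wells. Lung cancer cell lines were seeded in 1536-well plates, dosed by pin tool the next day, and fixed and stained after 5 days in one step with final 0.05% Triton X-100, 1% formaldehyde and 1 ug/ml Hoechst. Dosing was a single drug or a fixed anchor-drug dose plus five library-drug doses (not always all listed) in √10 steps, and values are medians of duplicate plates imaged at 4×.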

Compound in test [2]: CCn1c(-c2nonc2N)nc2c(C#CC(C)(C)O)ncc(OC[C@H]3CCCNC3)c21 + C[C@]1(O)C[C@@H](c2nc(-c3ccc4ccc(-c5ccccc5)nc4c3)c3c(N)nccn32)C1 [Linsitinib] (partner 1 µM)
The essentials: as §1

Compound in test [3]: CCn1c(-c2nonc2N)nc2c(C#CC(C)(C)O)ncc(OC[C@H]3CCCNC3)c21 + Nc1ncn([C@H]2C[C@H](O)[C@@H](CO)O2)c(=O)n1 [Decitabine] (partner 2 µM)
Summed up: as §1

Compound in test [4]: CCOC1=CC=CC=C1N=NC2=C(NN(C2=O)C3=NC(=CS3)C4=CC=CC=C4)C [BAM7] + O=C(c1cc(Cc2n[nH]c(=O)c3ccccc23)ccc1F)N1CCN(C(=O)C2CC2)CC1 [Olaparib] (partner 8 µM)
Summed up:
as §1

Consider NCI-H460, for which the relative viability in test [1] (first compound 0.5 µM) worked out at 0.0323; in test [1] (first compound 5 µM), 0.0283; in test [1] (first compound 15.81 µM) it was 0.029; in test [1] (first compound 50 µM) it was 0.0339; in test [2] (first compound 0.01 µM), 0.747; in test [2] (first compound 0.03162 µM) it was 0.752. Further, the relative viability in test [2] (first compound 0.1 µM) amounted to 0.687; in test [2] (first compound 0.3162 µM), 0.774; in test [2] (first compound 1 µM), 0.64; in test [3] (first compound 0.01 µM) it was 0.529; in test [3] (first compound 0.03162 µM), 0.398; in test [3] (first compound 0.1 µM) it was 0.493. In addition, the relative viability in test [3] (first compound 0.3162 µM) stood at 0.465; in test [3] (first compound 1 µM), 0.513; in test [4] (first compound 0.5 µM), 0.537; in test [4] (first compound 5 µM), 0.438; in test [4] (first compound 15.81 µM), 0.327; in test [4] (first compound 50 µM), 0.344.

For the cell line NCI-H520, the relative viability stood at 0.207 in test [1] (first compound 0.5 µM); 0.236 in test [1] (first compound 5 µM); 0.243 in test [1] (first compound 15.81 µM); 0.222 in test [1] (first compound 50 µM); 1.03 in test [2] (first compound 0.01 µM); 1.07 in test [2] (first compound 0.03162 µM). The relative viability in test [2] (first compound 0.1 µM) is 0.849; in test [2] (first compound 0.3162 µM), 0.795; in test [2] (first compound 1 µM) it was 0.674; in test [3] (first compound 0.01 µM), 0.483; in test [3] (first compound 0.03162 µM), 0.47; in test [3] (first compound 0.1 µM), 0.387. Moreover, the relative viability in test [3] (first compound 0.3162 µM) was 0.359; in test [3] (first compound 1 µM) it was 0.332; in test [4] (first compound 0.5 µM), 0.401; in test [4] (first compound 5 µM), 0.432; in test [4] (first compound 15.81 µM) it was 0.342; in test [4] (first compound 50 µM), 0.344.

Turning to NCI-H596, the relative viability came out at 0.848 in test [1] (first compound 0.5 µM); 0.956 in test [1] (first compound 5 µM); 0.951 in test [1] (first compound 15.81 µM); 1.18 in test [1] (first compound 50 µM); 0.993 in test [2] (first compound 0.01 µM); 1.08 in test [2] (first compound 0.03162 µM). Further, the relative viability in test [2] (first compound 0.1 µM) stood at 0.931; in test [2] (first compound 0.3162 µM), 1.03; in test [2] (first compound 1 µM) it was 1.03; in test [3] (first compound 0.01 µM) it was 1.05; in test [3] (first compound 0.1 µM) it was 0.961; in test [3] (first compound 0.3162 µM) it was 0.929. Further, the relative viability in test [3] (first compound 1 µM) turned out to be 1.03; in test [4] (first compound 0.5 µM), 0.665; in test [4] (first compound 5 µM), 0.625; in test [4] (first compound 15.81 µM) it was 0.636; in test [4] (first compound 50 µM), 0.697.

In the case of NCI-H647, the relative viability in test [1] (first compound 0.5 µM) came out at 0.241; in test [1] (first compound 5 µM), 0.18; in test [1] (first compound 15.81 µM) it was 0.191; in test [1] (first compound 50 µM), 0.146; in test [2] (first compound 0.01 µM), 1.25; in test [2] (first compound 0.03162 µM) it was 1.36. The relative viability amounted to 1.21 in test [2] (first compound 0.1 µM); 1.16 in test [2] (first compound 0.3162 µM); 1.01 in test [2] (first compound 1 µM); 0.384 in test [3] (first compound 0.01 µM); 0.379 in test [3] (first compound 0.03162 µM); 0.407 in test [3] (first compound 0.1 µM). In addition, the relative viability in test [3] (first compound 0.3162 µM) was found to be 0.299; in test [3] (first compound 1 µM), 0.371; in test [4] (first compound 0.5 µM), 0.711; in test [4] (first compound 5 µM), 0.67; in test [4] (first compound 15.81 µM), 0.549; in test [4] (first compound 50 µM), 0.524.

For the cell line NCI-H650, the relative viability in test [1] (first compound 0.5 µM) came out at 0.73; in test [1] (first compound 5 µM) it was 1.03; in test [1] (first compound 15.81 µM), 0.755; in test [1] (first compound 50 µM), 0.917; in test [2] (first compound 0.01 µM) it was 0.714; in test [2] (first compound 0.03162 µM), 0.79. Also, the relative viability in test [2] (first compound 0.1 µM) was determined as 0.959; in test [2] (first compound 0.3162 µM), 0.766; in test [2] (first compound 1 µM), 0.789; in test [3] (first compound 0.01 µM), 0.323; in test [3] (first compound 0.03162 µM), 0.348; in test [3] (first compound 0.1 µM) it was 0.32. Besides, the relative viability was 0.304 in test [3] (first compound 0.3162 µM); 0.29 in test [3] (first compound 1 µM); 0.424 in test [4] (first compound 0.5 µM); 0.363 in test [4] (first compound 5 µM); 0.381 in test [4] (first compound 15.81 µM); 0.368 in test [4] (first compound 50 µM).

For NCI-H661, the relative viability was 0.916 in test [1] (first compound 0.5 µM); 0.938 in test [1] (first compound 5 µM); 0.96 in test [1] (first compound 15.81 µM); 0.921 in test [1] (first compound 50 µM); 0.566 in test [2] (first compound 0.01 µM); 0.658 in test [2] (first compound 0.03162 µM). Also, the relative viability in test [2] (first compound 0.1 µM) stood at 0.508; in test [2] (first compound 0.3162 µM) it was 0.546; in test [2] (first compound 1 µM) it was 0.576; in test [3] (first compound 0.01 µM), 0.504; in test [3] (first compound 0.03162 µM) it was 0.591; in test [3] (first compound 0.1 µM) it was 0.513. The relative viability stood at 0.561 in test [3] (first compound 0.3162 µM); 0.543 in test [3] (first compound 1 µM); 0.796 in test [4] (first compound 0.5 µM); 0.855 in test [4] (first compound 5 µM); 0.716 in test [4] (first compound 15.81 µM); 0.725 in test [4] (first compound 50 µM).

With NCI-H727, the relative viability in test [1] (first compound 0.5 µM) stood at 0.215; in test [1] (first compound 15.81 µM), 0.345; in test [1] (first compound 50 µM), 0.33; in test [2] (first compound 0.01 µM) it was 0.271; in test [2] (first compound 0.03162 µM), 0.313; in test [2] (first compound 0.1 µM), 0.257. In addition, the relative viability was found to be 0.309 in test [2] (first compound 0.3162 µM); 0.288 in test [2] (first compound 1 µM); 1.03 in test [3] (first compound 0.01 µM); 0.976 in test [3] (first compound 0.03162 µM); 0.943 in test [3] (first compound 0.1 µM); 0.825 in test [3] (first compound 0.3162 µM). In addition, the relative viability in test [3] (first compound 1 µM) came to 0.714; in test [4] (first compound 0.5 µM), 0.707; in test [4] (first compound 5 µM) it was 0.58; in test [4] (first compound 15.81 µM), 0.522; in test [4] (first compound 50 µM), 0.573.

NCI-H838: the relative viability in test [1] (first compound 0.5 µM) is 0.359; in test [1] (first compound 5 µM), 0.292; in test [1] (first compound 15.81 µM), 0.346; in test [1] (first compound 50 µM), 0.328; in test [2] (first compound 0.01 µM), 1.03; in test [2] (first compound 0.03162 µM), 1.05. The relative viability in test [2] (first compound 0.1 µM) was found to be 1.02; in test [2] (first compound 0.3162 µM), 0.991; in test [2] (first compound 1 µM) it was 0.975; in test [3] (first compound 0.01 µM), 0.452; in test [3] (first compound 0.03162 µM), 0.416; in test [3] (first compound 0.1 µM), 0.482. Also, the relative viability was determined as 0.44 in test [3] (first compound 0.3162 µM); 0.497 in test [3] (first compound 1 µM); 0.876 in test [4] (first compound 0.5 µM); 0.776 in test [4] (first compound 5 µM); 0.797 in test [4] (first compound 15.81 µM); 0.758 in test [4] (first compound 50 µM).

Values taken from the supplement of paper PMC10307832.
